Experiments:
HCT116 KU70^+/− = test: Cell survival, trypan blue counting; type: cell-based, human; details: 4.80 μM of AsiDNA and/or 0.1 μM of Ola; day 6 after treatment
Method: (§1) Cells were grown according to the supplier's instructions. Cell lines were maintained at 37° C. in a humidified atmosphere at 5% CO2.
(§2) AsiDNA or PARPi cytotoxicity was measured by relative survival and cell death quantification. Adherent cells were seeded in 24-well culture plates at appropriate densities and incubated 24 hours at 37° C. before AsiDNA and/or PARPi addition. Cells were harvested day 6aftertreatment, stained with 0.4% trypan blue (Sigma Aldrich, Saint-Louis, USA) and counted with a Burker chamber. Cell survival was calculated as ratio of living treated cells to living mock-treated cells. Cell death was calculated as the number of dead cells on the total number of counted cells. Additivity of the toxicity was calculated by the product of cell survivals to AsiDNA and cell survivals to PARPi.

HeLa BRCA2 SX = test: Cell survival, trypan blue counting; type: cell-based, human; details: 4.80 μM of AsiDNA and/or 0.1 μM of Ola; day 6 after treatment
Method: as §1, §2

HeLa CTL KD = test: Cell survival, trypan blue counting; type: cell-based, human; details: 4.80 μM of AsiDNA and/or 0.1 μM of Ola; day 6 after treatment
Method: as §1, §2

HeLa CTL SX = test: Cell survival, trypan blue counting; type: cell-based, human; details: 4.80 μM of AsiDNA and/or 0.1 μM of Ola; day 6 after treatment
Method: as §1, §2

53BP1 and Rad51 foci = 53BP1 and Rad51 foci immunostaining in MDAMB231 cells; type: cell-based, human; details: MDAMB231, 24 h, 16 μM AsiDNA +/− 1 μM olaparib
Method: FIG. 9: Effect of the combined treatment AsiDNA and olaparib on DNA repair. Representative images of γH2AX (red) and Rad51 or 53BP1 (green) foci in MDAMB231 (A) or MCF10 (C) cells treated 24 h with Ola and/or AsiDNA. (B, D) Numbering of 53BP1 and Rad51 foci in 100 MDAMB231 cells (B) or MCF10A cells (D) 24 h after Ola and/or AsiDNA treatment. Red bars represent the mean values. (E, F) DNA damage monitored by alkaline comet assay 24 h after Ola and/or AsiDNA treatment in MDAMB231 (E) or MCF10A (F) cells. ns: not significant; *: p<0.05; ****: p<0.0001.
FIG. 10: AsiDNA inhibits irradiation-induced 53BP1 foci. Numbering of 53BP1 foci in 100 MDAMB231 cells 2 h after 10Gy irradiation, 22 h after prior treatment with AsiDNA and/or Ola. Red bars represent the mean values. *: p<0.05; **: p<0.01; ****: p<0.0001.
For immunostaining, MDAMB231 cells are seeded on cover slips (Menzel, Braunschweig, Germany) at a concentration of 5×10^5 cells and incubated at 37° C. during 1 day. Cells are then treated with 16 μM AsiDNA+/−1 μM olaparib. 24 h after treatment, cells are fixed for 20 min in 4% paraformaldehyde/Phosphate-Buffered Saline (PBS 1×), permeabilized in 0.5% Triton X-100 for 10 min, blocked with 2% bovine serum albumin/PBS 1× and incubated with primary antibody for 1 h at 4° C. […]

[1] = system: mutants with one repair defect (PARP1, BRCA1, BRCA2, Ku70, DNA-PKcs); test: Single treatments in isogenic pairs with DNA repair mutants; details: 4.80 μM AsiDNA or 0.1 μM Ola
Method: To determine if the efficacy of the combination of AsiDNA with Ola was not restricted to BC, the inventors analyzed the sensitivity of different cancer cell lines including glioblastoma, cervical cancer, colon cancer, blood cancer and melanoma.
as §1, §2

MCF10A non-tumor cells = test: Alkaline comet assay; type: cell-based, human; details: 24 h; olaparib (1 μM) alone or with AsiDNA (16 μM)
Method: To dissect this cytotoxic synergy, the inventors examined the effect of AsiDNA, Ola or both on DNA repair activities. […] Pan-nuclear phosphorylation of H2AX is thought to be involved in the inhibition of HR and NHEJ repair enzyme recruitment by AsiDNA. […] This increase could account for the efficient toxicity of the combination in MDAMB231 cells.
Cells treated with AsiDNA (16 μM), olaparib (1 μM) or both were suspended in 0.5% low melting point agarose in DMEM and transferred onto a frosted glass microscope slide precoated with a layer of 0.5% normal melting point agarose. Slides were immersed in lysis solution [2.5 mol/L NaCl, 100 mmol/L EDTA, 10 mmol/L Tris, 1% sodium lauryl sarcosinate, 10% DMSO, 1% Triton X-100 (pH 10)] at 4jC for 1 h, placed in a electrophoresis tank containing 0.3 mol/L NaOH (pH 13) and 1 mmol/L EDTA for 40 min, electrophoresis for 25 min at 25 V (300 mA), washed with neutral buffer [400 mmol/L Tris-HCl (pH 7.5)], and stained with 20 Ag/mL ethidium bromide. The variables of the “comets” were quantified with the use of the software Comet Assay 2 (Perceptive Instrument). Triplicate slides were processed for each experimental point. The tail moment is defined as the product of the percentage of DNA in the tail and the displacement between the head and the tail of the comet.

MO59J = test: Cell survival, trypan blue counting; type: cell-based, human; details: 4.80 μM of AsiDNA and/or 0.1 μM of Ola; day 6 after treatment
Method: as §1, §2

[2] = system: MD227 human breast cancer cell lines grafted in the fat pad; test: In vivo test on tumor growth, breast cancer xenograft; details: DT01 2.5 mg intratumoral and 2.5 mg subcutaneous daily for 5 days; Olaparib 200 mg/kg/day per os, 5 daily sessions; or both
Method: Nude mice with xenografted MD227 human breast cancer cell lines grafted in the fat pad were treated by intratumoral administration of DT01 (5 mg/day) and Olaparib (200 mg/kg/day). Tumor growth was monitored (time zero: beginning of treatment). Eight to ten animals were treated per group (group 1: vehicle injection (grey line); group 2: DT01 (black dotted line); group 3: Olaparib (grey dotted line); group 4; DT01+ Olaparib (black line)). Treatment was administered 5 following days.
Human breast cancer xenograft tumors were obtained by injecting 4.10^6 tumor cells into the fat pad of adult female nude mice (Janvier, Le Genest Saint Isle, France). The animals were housed in the laboratory for at least 1 week before starting experiments. There were six animals per cage under controlled conditions of light and dark cycles (12 h: 12 h), relative humidity (55%), and temperature (21° C.). Food and tap water were available ad libitum. […] Mice were weighed every week and followed up for 280 days. For ethical reasons, the animals were sacrificed when tumors reached 1500 mm^3. The Local Committee on Ethics of Animal Experimentation approved all experiments.

HeLa BRCA1 SX = test: Cell survival, trypan blue counting; type: cell-based, human; details: 4.80 μM of AsiDNA and/or 0.1 μM of Ola; day 6 after treatment
Method: as §1, §2

2 non-tumor cell lines = test: Combined treatment survival in non-tumor cell lines (FIG. 6, 12); type: cell-based, human; details: AsiDNA 4.8 μM, olaparib 0.1 and 1 μM; 6 days
Method: Efficacy of AsiDNA (4. 8 μM), olaparib (0, 0.1 and 1 μM) or both was monitored 6 days after treatment by cell counting after trypan blue labeling. (A) Percentage of living cells relative to non-treated condition (NT). (B) Percentage of dead cells. Data are expressed as mean+Sc.D. of at least 2 independent experiments. Dotted lines indicate the calculated cell survivals if additivity between AsiDNA and olaparib.
(A) Percentage of living cells relative to non-treated condition (NT). (B) Percentage of dead cells. Dotted lines indicate the calculated cell survivals if additivity between AsiDNA and veliparib.
The inventors monitored cell survival to combined treatment of 3 BC and 2 non-tumor cell lines with different sensitivities to Ola and AsiDNA alone (FIG. 6; Table 1).

IM9 = test: Cell survival, trypan blue counting; type: cell-based, human; details: 4.80 μM of AsiDNA and/or 0.1 μM of Ola; day 6 after treatment
Method: as §1, §2

MCF10A = test: Cell survival, trypan blue counting; type: cell-based, human; details: 4.80 μM of AsiDNA and/or 0.1 μM of Ola; day 6 after treatment
Method: as §1, §2

Jurkat = test: Cell survival, trypan blue counting; type: cell-based, human; details: 4.80 μM of AsiDNA and/or 0.1 μM of Ola; day 6 after treatment
Method: as §1, §2

HeLa PARP1 KD = test: Cell survival, trypan blue counting; type: cell-based, human; details: 4.80 μM of AsiDNA and/or 0.1 μM of Ola; day 6 after treatment
Method: as §1, §2

Hut78 = test: Cell survival, trypan blue counting; type: cell-based, human; details: 4.80 μM of AsiDNA and/or 0.1 μM of Ola; day 6 after treatment
Method: as §1, §2

SMILES: O=C(c1cc(Cc2n[nH]c(=O)c3ccccc23)ccc1F)N1CCN(C(=O)C2CC2)CC1 [Olaparib, 4-[(3-[(4-cyclopropylcarbonyl)piperazin-4-yl]carbonyl)-4-fluorophenyl]methyl(2H)-phthalazin-1-one]
- Survival (%/NT) (HCT116 KU70^+/−): 88.6 %/NT
- Survival (%/NT) (HeLa BRCA2 SX): 65.0 %/NT
- Survival (%/NT) (HeLa CTL KD): 97.2 %/NT
- Survival (%/NT) (HeLa CTL SX): 105.1 %/NT
- γH2AX, 53BP1 and Rad51 foci in the absence of DNA damaging treatment (53BP1 and Rad51 foci): induces the accumulation of DSBs
- cytotoxicity of single treatments to DNA repair mutants [1]: essentially restricted to the BRCA mutants
- DNA damage (alkaline comet assay) (MCF10A non-tumor cells): slight increase of DNA damage
- Survival (%/NT) (MO59J): 87.5 %/NT
- local skin toxicity or systemic toxicity [2]: No local skin toxicity or systemic toxicity
- Survival (%/NT) (HeLa BRCA1 SX): 71.4 %/NT
- sensitivity to combined and single treatments (2 non-tumor cell lines): insensitive
- Survival (%/NT) (IM9): 84.6 %/NT
- Survival (%/NT) (MCF10A): 86.2 %/NT
- Survival (%/NT) (Jurkat): 68.4 %/NT
- Survival (%/NT) (HeLa PARP1 KD): 100.5 %/NT
- Survival (%/NT) (Hut78): 85.8 %/NT
